Laboratory results from patent US20230220206A1, “REJUVENATING AGENTS FOR ASPHALT RECYCLING” (BASF SE, priority 2020, published 2023).
Like-named read-outs stand apart in the source and are kept apart here.

How the values were obtained:
[1] = bitumen 20/30 + 5% compound
[2] = Softening point ring & ball of rejuvenated bitumen; conditions: bitumen 20/30 rejuvenated with 5% of the compound, 180° C., 30 minutes
[3] = assay type: physicochemical; conditions: bitumen extracted from RAP + 5% compound
[4] = Force ductility of rejuvenated polymer-modified bitumen; assay type: physicochemical; conditions: Olexobit 45 + 5% compound
Description: Herewith, it will be shown that the positive effects of the here claimed rejuvenating agents can also be applied to PmB, in this case Olexobit 45. Olexobit 45 was therefore rejuvenated according to the procedure of Example 1.

[5] = Softening point of rejuvenated RAP bitumen; assay type: physicochemical; conditions: bitumen extracted from RAP + 5% compound
[6] = assay type: physicochemical; conditions: aged bitumen 50/70 PCK Schwedt + 5% compound
[7] = MSCR test, percentage elastic recovery; assay type: physicochemical; conditions: bitumen 20/30 + 5% compound
[8] = MSCR elastic recovery of rejuvenated polymer-modified bitumen; assay type: physicochemical; conditions: Olexobit 45 + 5% compound
[9] = TD NMR relaxation time measurements (SE-CPMG, multicomponent fitting); assay type: physicochemical; conditions: for 1/<1/T2e>: harmonic average relaxation time of the mobile components
Description: TD NMR, also known as NMR relaxometry, is a known NMR technique and relies on measuring the relaxation times of the nuclear spin system instead of frequency-domain spectra. […] Also, sample preparation is much simpler as there are no concerns about sample homogeneity and no solvents are needed.
Like that, a clear distinction between protons in a solid, amorphous and liquid component can be made with good accuracy.
Bitumen 20/30 was rejuvenated with some of the here claimed rejuvenating agents according to example 1. The pure bitumen 20/30 as well as the rejuvenated bitumen 20/30 samples were then analyzed by TD NMR. To do so, all samples were heated up to 80° C. to allow filling of the samples into NMR tubes. After that, TD NMR measurements at 30° C., 80° C. and 140° C. were conducted using the SE-CMPG sequence. This sequence consists of a solid echo combined with a so-called CPMG (Carr-Purcell-Meiboom-Gill) train of subsequent spin echoes with alternating phase and is capable of recording the decay of coherence in the transverse nuclear magnetization over about 5 orders of magnitude in time. Depending on the measurement temperature, the experimental data were then fitted with semi-empirically selected multicomponent models involving several Gaussian and exponential components:
S(t)=[pg1 exp(−(t/T2g1)^2)+pg2 exp(−(t/T2g2)^2)]+pe1 exp(−t/T2e1)[pe2 exp(−t/T2e2)+pe3 exp(−t/T2e3)]
In order to assess the effect of temperature on the molecular mobility of the bitumen, experiments were conducted at temperatures of 30° C., 80° C. and 140° C., and the following models turned out to provide adequate fits of the respective normalized signal decay curves: • two Gaussians and one exponential at 30° C., • two Gaussians and two exponentials at 80° C., • three exponentials at 140° C.
From the fitting, different values can be obtained: • The p values (pg1, pg2, pe1, pe2 and pe3), indicating the signal fraction of the individual component scaled in the range from 0 to 1 • The T2 values (T2g1, T2g2, T2e1, T2e2 and T2e3), indicating the relaxation times that correspond to each of the individual components. The longer the relaxation time, the higher the molecular mobility of the respective component • In addition to the values T2e1, T2e2 and T2e3, we also calculated the average relaxation time of the mobile components, 1/<1/T2e>, for the temperatures at which more than one mobile component exist (80 and 140° C.). 1/<1/T2e> Is calculated as the harmonic average of the relaxation times involved:
[formula] • The type of the component, those being: • g1: the rigid component • g2: the partially mobile component • e1, e2 and e3: mobile components with increasingly high local molecular mobilities
It is believed that the rigid component g1 is directly correlated with the amount of the asphaltene aggregates. The mobile component(s) on the other hand can be attributed to the maltene phase.

[10] = MSCR elastic recovery of rejuvenated aged bitumen; assay type: physicochemical; conditions: aged bitumen 50/70 PCK Schwedt + 5% compound
[11] = Softening point of rejuvenated polymer-modified bitumen; assay type: physicochemical; conditions: Olexobit 45 + 5% compound
[12] = Softening point of rejuvenated aged bitumen; assay type: physicochemical; conditions: aged bitumen 50/70 BP + 5% compound
[13] = assay type: physicochemical; conditions: Olexobit 45 + 5% compound
[14] = MSCR elastic recovery of rejuvenated aged bitumen; assay type: physicochemical; conditions: aged bitumen 50/70 BP + 5% compound
[15] = Softening point of rejuvenated aged bitumen; assay type: physicochemical; conditions: aged bitumen 50/70 PCK Schwedt + 5% compound
[16] = Loss tangent from DSR frequency sweep at 60° C.; assay type: physicochemical
Description: In addition, it could be shown that additives according to the present invention perform most of the times better than the common benchmarks according to the standard testing techniques for the low, mid and high temperature range. What cannot be extracted from these measurements however is an indication of the working mechanism.

[17] = 30° C., bitumen 20/30 + additive
[18] = 80° C., bitumen 20/30 + additive
[19] = 140° C., bitumen 20/30 + additive

- η(135° C.) [mPas] [1]: 900 mPas
- SP [° C.] (softening point) [2]: 50.0 °C
- η(135° C.) [mPas] [3]: 1,100 mPas
- Force Ductility Fmax [N] [4]: 14 N
- Force Ductility W [J/cm^2] [4]: 1.1 J/cm^2
- SP [° C.] [5]: 57.0 °C
- η(135° C.) [mPas] [6]: 800 mPas
- MSCR % Rec. (0.1 kPa) ([7]; 0.1 kPa): 8%
- MSCR % Rec. (1.6 kPa) ([7]; 1.6 kPa): 2%
- MSCR % Rec. (3.2 kPa) ([7]; 3.2 kPa): 1%
- MSCR % Rec. (0.1 kPa) ([8]; 0.1 kPa): 15%
- MSCR % Rec. (1.6 kPa) ([8]; 1.6 kPa): 4%
- MSCR % Rec. (3.2 kPa) ([8]; 3.2 kPa): 1%
- T2e1 [9, 17]: 0.20 ms
- T2g1 [9, 17]: 0.016 ms
- T2g2 [9, 17]: 0.044 ms
- pe1 ([9]; 30° C., mobile component, bitumen 20/30 + additive): 0.41
- pg2 ([9]; 30° C., partially mobile component, bitumen 20/30 + additive): 0.18
- pg1 ([9]; 30° C., signal fraction of rigid component, bitumen 20/30 + additive): 0.40
- T2e1 [9, 18]: 0.47 ms
- T2e2 [9, 18]: 2.42 ms
- T2g1 [9, 18]: 0.017 ms
- T2g2 [9, 18]: 0.053 ms
- pe1 [9, 18]: 0.46
- pe2 [9, 18]: 0.35
- pg1 [9, 18]: 0.10
- pg2 [9, 18]: 0.078
- 1/<1/T2e> ([9]; 80° C.): 0.72 ms
- T2e1 [9, 19]: 0.20 ms
- T2e2 [9, 19]: 4.45 ms
- T2e3 [9, 19]: 24.51 ms
- pe1 [9, 19]: 0.18
- pe2 [9, 19]: 0.47
- pe3 [9, 19]: 0.34
- 1/<1/T2e> ([9]; 140° C.): 0.94 ms
- MSCR % Rec. (0.1 kPa) ([10]; 0.1 kPa): 5%
- MSCR % Rec. (1.6 kPa) ([10]; 1.6 kPa): 1%
- MSCR % Rec. (3.2 kPa) ([10]; 3.2 kPa): 0%
- SP [° C.] [11]: 48.0 °C
- SP [° C.] [12]: 54.0 °C
- η(135° C.) [mPas] [13]: 650 mPas
- MSCR % Rec. (0.1 kPa) ([14]; 0.1 kPa): 7%
- MSCR % Rec. (1.6 kPa) ([14]; 1.6 kPa): 3%
- MSCR % Rec. (3.2 kPa) ([14]; 3.2 kPa): 1%
- SP [° C.] [15]: 52.5 °C
- tan δ ([16]; aged bitumen 50/70 BP + 5% compound, lowest frequency): 75
- tan δ ([16]; aged bitumen 50/70 PCK Schwedt + 5% compound, lowest frequency): 105
- tan δ ([16]; bitumen 20/30 + 5% compound, lowest frequency (0.01 rad/s)): 55
- tan δ ([16]; bitumen extracted from RAP + 5% compound, lowest frequency): 45
Substance: Polypropylenglycol bis glycidylether
